One assay concerns the target acetylcholinesterase (Homo sapiens, UniProt P22303). In words: Cholinesterase inhibition assay (photometric method of Ellman et al.). It is filed as biochemical. The note with it: read-out: Cholinesterase Inhibition IC50 (molar conc.). (Ellman's reagent forms a yellow product with free thiols.)
The subject of assay [1] is scopolamine induced memory deficit in mice. Kind of assay: Dark Avoidance Assay (reversal of scopolamine induced memory deficit). It is filed as in vivo. The note with it: retest after 24 hours. Here is the method: This utility can also be ascertained by determining the ability of these compounds to restore cholinergically deficient memory in the Dark Avoidance Assay. In this assay mice are tested for their ability to remember an unpleasant stimulus for a period of 24 hours. A mouse is placed in a chamber that contains a dark compartment; a strong incadescent light drives it to the dark compartment, where an electric shock is administered through metal plates on the floor. The animal is removed from the testing apparatus and tested again, 24 hours later, for the ability to remember the electric shock.
If scopolamine, an anticholinergic that is known to cause memory impairment, is administered before an animal's initial exposure to the test chamber, the animal re-enters the dark compartment shortly after being placed in the test chamber 24 hours later. This effect of scopolamine is blocked by an active test compound, resulting in a greater interval before re-entry into the dark compartment.
The results for an active compound are expressed as the percent of a group of animals in which the effect of scopolamine is blocked, as manifested by an increased interval between being placed in the test chamber and re-entering the dark compartment.

In assay [2] the test system is 2-phenyl-1,4-benzoquinone-induced writhing in mice. In words: 2-phenyl-1,4-benzoquinone-induced writhing test in mice (analgesia). It is filed as in vivo. From the text:
The compounds of Formula I of the present invention are useful as analgesic agents due to their ability to alleviate pain in mammals. […] Exptl. Biol. Med., 95, 729 (1957)].
(In general: An intraperitoneal irritant provokes the stretching counted in writhing tests.)

SMILES strings stand for the structures.

The results in this text go back to patent US4920117A, “4,5,5a,6-tetrahydro-3H-isoxazolo(5,4,3-kl)acridines, pharmaceutical compositions and use” (Hoechst-Roussel Pharmaceuticals Inc., priority 1989, dated 1990).

acetylcholinesterase, sequence (P22303 32-614): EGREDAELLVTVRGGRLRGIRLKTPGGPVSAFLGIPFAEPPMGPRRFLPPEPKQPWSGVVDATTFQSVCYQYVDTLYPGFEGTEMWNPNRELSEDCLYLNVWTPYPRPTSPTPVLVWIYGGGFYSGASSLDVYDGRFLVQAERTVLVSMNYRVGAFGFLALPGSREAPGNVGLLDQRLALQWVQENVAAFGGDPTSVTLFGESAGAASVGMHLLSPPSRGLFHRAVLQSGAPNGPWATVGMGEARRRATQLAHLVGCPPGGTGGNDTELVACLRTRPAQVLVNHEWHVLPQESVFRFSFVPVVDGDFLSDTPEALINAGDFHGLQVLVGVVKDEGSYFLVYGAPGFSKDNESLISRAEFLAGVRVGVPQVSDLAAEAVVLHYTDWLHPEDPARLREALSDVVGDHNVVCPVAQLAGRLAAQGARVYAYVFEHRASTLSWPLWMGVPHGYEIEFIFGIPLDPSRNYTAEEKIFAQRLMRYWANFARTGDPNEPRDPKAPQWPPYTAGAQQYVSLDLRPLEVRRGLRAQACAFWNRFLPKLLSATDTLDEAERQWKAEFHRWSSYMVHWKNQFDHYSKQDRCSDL

As for `c1ccc2c(c1)NC1CCCc3onc-2c31` (stereo not shown) [4,5,5a,6-Tetrahydro-3H-isoxazolo[5,4,3-kl]acridine], the IC50 (usually the point on the concentration scale where inhibition reaches its midpoint) on acetylcholinesterase stood at 13 µM. In the case of `c1ccc2c(c1)nc1c3c(onc32)CCC1` [4,5-Dihydro-3H-isoxazolo[5,4,3-kl]acridine], the “% of animals with scopolamine induced memory deficit reversal” value (“% of animals” below) in assay [1] (0.63 mg/kg body weight) is reported as 20%. Moreover, the 50% inhibitory concentration (IC50) on acetylcholinesterase was 3.9 µM. In the case of `C=CCN1c2ccccc2-c2noc3c2C1CCC3` (stereo not shown) [6-(2-Propenyl)-4,5,5a,6-tetrahydro-3H-isoxazolo[5,4,3-kl]acridine], the “% of animals” value in assay [1] (1.25 mg/kg body weight) amounted to 27%. With `CCNC(=O)N1c2ccccc2-c2noc3c2C1CCC3` (stereo not shown) [6-Ethylaminocarbonyl-4,5,5a,6-tetrahydro-3H-isoxazolo[5,4,3-kl]acridine], the “Analgesic PQW % Inhibition of Writhing at 20 mg/kg., S.C.” value in assay [2] amounted to 44%. On the same count and under the same terms, with `C#CCNC(=O)N1c2ccccc2-c2noc3c2C1CCC3` (stereo not shown) [N-(2-Propynyl)-4,5,5a,6-tetrahydro-3H-isoxazolo-[5,4,3-kl]acridine-6-carboxamide] the figure was 29%; with `O=C(NCCN1CCOCC1)N1c2ccccc2-c2noc3c2C1CCC3` (stereo not shown) [N-[2-(4-Morpholinyl)ethyl]-4,5,5a,6-tetrahydro-3H-isoxazolo[5,4,3-kl]acridine-6-carboxamide], 52%; with `O=C(NCC#CCN1CCCC1)N1c2ccccc2-c2noc3c2C1CCC3` (stereo not shown) [N-[4-(1-Pyrrolidinyl)-2-butyn-1-yl]-4,5,5a,6-tetrahydro-3H-isoxazolo[5,4,3-kl]acridine-6-carboxamide], 33%. For `CNC(=O)Oc1ccc2c(c1)[C@]1(C)CCN(C)[C@@H]1N2C` [Physostigmine, reference compound], the “% of animals” value in assay [1] (0.31 mg/kg body weight, reference) turned out to be 20%. For `CCC(=O)O[C@](Cc1ccccc1)(c1ccccc1)[C@H](C)CN(C)C` [Propoxyphene, reference compound], in assay [2] (3.9 mg/kg, s.c., reference compound), the “Analgesic PQW % Inhibition of Writhing” value was found to be 50%.
